From ChEMBL document CHEMBL4610114, “Fragment-Based Discovery of Pyrazolopyridones as JAK1 Inhibitors with Excellent Subtype Selectivity” (J Med Chem, 2020)
Converted amounts (≈) assume the structure as drawn.

Key:
[1] = target: T1, Tyrosine-protein kinase JAK1 (Homo sapiens, UniProt P23458)
[2] = target: T2, Tyrosine-protein kinase JAK3 (Homo sapiens, UniProt P52333)
T2 sequence (P52333 whole entry): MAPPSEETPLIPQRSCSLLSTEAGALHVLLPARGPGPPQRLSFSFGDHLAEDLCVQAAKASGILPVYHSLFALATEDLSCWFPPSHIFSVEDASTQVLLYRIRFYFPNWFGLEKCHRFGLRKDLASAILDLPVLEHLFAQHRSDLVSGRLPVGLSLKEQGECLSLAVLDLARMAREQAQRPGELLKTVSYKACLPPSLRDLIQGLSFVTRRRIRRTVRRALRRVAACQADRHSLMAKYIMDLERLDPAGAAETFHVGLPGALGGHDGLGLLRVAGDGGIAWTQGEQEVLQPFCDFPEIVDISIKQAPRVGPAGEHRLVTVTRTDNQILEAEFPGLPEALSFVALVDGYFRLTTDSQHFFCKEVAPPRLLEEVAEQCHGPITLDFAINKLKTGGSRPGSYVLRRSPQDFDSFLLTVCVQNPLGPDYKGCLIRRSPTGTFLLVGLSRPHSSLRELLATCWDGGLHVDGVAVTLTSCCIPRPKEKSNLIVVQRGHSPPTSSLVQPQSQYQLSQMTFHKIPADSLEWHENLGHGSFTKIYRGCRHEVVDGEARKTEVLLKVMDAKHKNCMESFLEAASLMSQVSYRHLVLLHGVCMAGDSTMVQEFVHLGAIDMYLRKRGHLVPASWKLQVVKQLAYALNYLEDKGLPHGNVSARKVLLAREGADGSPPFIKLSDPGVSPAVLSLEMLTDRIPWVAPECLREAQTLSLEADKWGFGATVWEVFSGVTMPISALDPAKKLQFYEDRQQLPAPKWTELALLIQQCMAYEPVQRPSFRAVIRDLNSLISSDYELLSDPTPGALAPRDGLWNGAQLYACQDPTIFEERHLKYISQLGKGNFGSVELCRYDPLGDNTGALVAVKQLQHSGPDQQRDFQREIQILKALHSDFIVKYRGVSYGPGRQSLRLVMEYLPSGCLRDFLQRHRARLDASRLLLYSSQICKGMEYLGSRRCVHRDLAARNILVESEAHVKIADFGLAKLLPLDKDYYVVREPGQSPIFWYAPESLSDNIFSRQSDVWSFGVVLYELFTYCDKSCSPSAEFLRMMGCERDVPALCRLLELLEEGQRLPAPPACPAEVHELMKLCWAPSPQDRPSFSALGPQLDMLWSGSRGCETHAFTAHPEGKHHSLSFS

[3] = target: T3, Tyrosine-protein kinase JAK2 (Homo sapiens, UniProt O60674)
[4] = target: Non-receptor tyrosine-protein kinase TYK2 (Homo sapiens, UniProt P29597)
[5] = target: T1, Tyrosine-protein kinase JAK1; remark: listed apart in the source
Description: Inhibition of JAK1 in human STAT6-bla-RA1 cells assessed as reduction in IL4-induced STAT6-signalling pre-incubated for 1 hrs before human recombinant IL4 addition and further incubated for 4 hrs fluorescence based assay

[6] = target: T3, Tyrosine-protein kinase JAK2; remark: listed apart in the source
Description: Inhibition of JAK2 in human STAT5-irf1-bla TF1 cells assessed as reduction in EPO-induced STAT5-signalling pre-incubated for 1 hrs before EPO addition and further incubated for 4 hrs fluorescence based assay

physchem [7] = details: octanol/water
Description: Lipophilicity, logD of the compound by shake flask assay

physchem [8] = details: PBS buffer, pH 7.4
Description: Aqueous solubility in PBS buffer at pH 7.4 by HPLC analysis

in vitro = details: human, liver microsomes
Description: Apparent intrinsic clearance in human liver microsomes

T1 sequence (P23458 whole entry): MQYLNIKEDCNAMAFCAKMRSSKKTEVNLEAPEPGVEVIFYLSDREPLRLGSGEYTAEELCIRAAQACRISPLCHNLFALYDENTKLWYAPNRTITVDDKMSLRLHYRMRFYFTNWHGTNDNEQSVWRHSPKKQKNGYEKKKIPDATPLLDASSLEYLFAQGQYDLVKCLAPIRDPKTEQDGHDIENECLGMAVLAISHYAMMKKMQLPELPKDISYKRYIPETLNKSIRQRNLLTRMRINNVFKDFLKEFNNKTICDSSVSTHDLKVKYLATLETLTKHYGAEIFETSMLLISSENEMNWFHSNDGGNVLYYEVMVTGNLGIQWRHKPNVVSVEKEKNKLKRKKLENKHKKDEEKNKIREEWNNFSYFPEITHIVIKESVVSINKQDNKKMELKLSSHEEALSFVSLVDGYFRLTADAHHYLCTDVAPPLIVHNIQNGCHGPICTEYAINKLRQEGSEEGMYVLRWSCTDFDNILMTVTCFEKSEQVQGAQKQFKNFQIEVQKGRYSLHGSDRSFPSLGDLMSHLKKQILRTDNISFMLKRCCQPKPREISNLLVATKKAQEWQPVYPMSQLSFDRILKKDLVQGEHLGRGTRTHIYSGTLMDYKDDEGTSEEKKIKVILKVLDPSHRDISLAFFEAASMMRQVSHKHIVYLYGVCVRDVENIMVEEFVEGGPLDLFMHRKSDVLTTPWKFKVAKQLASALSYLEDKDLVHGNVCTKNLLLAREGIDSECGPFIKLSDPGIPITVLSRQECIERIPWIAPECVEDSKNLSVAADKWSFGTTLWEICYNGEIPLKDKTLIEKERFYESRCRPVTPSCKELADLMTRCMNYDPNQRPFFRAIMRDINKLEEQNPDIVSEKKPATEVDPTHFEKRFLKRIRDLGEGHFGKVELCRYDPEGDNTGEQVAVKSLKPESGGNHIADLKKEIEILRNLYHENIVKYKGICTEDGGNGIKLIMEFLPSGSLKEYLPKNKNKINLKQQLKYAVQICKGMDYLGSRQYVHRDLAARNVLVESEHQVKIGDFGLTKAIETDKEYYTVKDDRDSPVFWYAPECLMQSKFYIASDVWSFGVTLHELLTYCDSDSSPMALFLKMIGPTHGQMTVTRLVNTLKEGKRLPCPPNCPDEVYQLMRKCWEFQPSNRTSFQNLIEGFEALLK
Sequence of Non-receptor tyrosine-protein kinase TYK2 (P29597 whole entry): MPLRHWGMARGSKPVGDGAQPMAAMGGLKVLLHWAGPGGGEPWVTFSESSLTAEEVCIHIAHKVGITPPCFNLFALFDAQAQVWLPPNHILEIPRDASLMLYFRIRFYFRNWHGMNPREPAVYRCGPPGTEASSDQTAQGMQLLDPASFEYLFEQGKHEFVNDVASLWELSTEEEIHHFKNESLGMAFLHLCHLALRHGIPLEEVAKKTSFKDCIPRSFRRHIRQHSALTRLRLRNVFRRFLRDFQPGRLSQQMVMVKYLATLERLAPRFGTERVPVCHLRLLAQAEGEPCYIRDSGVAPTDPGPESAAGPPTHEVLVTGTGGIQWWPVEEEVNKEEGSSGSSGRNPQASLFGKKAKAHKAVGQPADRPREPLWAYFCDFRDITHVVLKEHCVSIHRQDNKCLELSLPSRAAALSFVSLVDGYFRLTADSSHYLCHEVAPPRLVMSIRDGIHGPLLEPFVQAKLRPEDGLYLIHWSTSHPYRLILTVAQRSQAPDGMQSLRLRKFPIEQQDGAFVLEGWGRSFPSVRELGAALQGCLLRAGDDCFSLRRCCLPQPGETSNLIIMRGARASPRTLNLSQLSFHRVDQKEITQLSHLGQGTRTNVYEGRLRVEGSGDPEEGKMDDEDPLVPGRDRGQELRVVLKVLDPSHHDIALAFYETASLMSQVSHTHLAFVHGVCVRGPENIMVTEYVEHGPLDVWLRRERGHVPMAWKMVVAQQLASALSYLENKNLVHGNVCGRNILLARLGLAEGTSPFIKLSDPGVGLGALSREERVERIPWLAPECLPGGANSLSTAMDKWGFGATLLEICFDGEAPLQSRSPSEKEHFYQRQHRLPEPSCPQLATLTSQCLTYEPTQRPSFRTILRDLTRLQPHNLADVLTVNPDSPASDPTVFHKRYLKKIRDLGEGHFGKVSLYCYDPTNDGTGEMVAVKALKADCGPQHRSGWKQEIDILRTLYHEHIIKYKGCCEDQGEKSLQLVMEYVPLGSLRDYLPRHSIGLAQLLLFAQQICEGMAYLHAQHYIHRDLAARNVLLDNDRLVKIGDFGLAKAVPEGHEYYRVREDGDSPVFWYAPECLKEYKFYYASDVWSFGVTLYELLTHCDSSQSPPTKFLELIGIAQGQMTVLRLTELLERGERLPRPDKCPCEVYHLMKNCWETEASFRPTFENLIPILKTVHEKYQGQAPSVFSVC
T3 sequence (O60674 whole entry): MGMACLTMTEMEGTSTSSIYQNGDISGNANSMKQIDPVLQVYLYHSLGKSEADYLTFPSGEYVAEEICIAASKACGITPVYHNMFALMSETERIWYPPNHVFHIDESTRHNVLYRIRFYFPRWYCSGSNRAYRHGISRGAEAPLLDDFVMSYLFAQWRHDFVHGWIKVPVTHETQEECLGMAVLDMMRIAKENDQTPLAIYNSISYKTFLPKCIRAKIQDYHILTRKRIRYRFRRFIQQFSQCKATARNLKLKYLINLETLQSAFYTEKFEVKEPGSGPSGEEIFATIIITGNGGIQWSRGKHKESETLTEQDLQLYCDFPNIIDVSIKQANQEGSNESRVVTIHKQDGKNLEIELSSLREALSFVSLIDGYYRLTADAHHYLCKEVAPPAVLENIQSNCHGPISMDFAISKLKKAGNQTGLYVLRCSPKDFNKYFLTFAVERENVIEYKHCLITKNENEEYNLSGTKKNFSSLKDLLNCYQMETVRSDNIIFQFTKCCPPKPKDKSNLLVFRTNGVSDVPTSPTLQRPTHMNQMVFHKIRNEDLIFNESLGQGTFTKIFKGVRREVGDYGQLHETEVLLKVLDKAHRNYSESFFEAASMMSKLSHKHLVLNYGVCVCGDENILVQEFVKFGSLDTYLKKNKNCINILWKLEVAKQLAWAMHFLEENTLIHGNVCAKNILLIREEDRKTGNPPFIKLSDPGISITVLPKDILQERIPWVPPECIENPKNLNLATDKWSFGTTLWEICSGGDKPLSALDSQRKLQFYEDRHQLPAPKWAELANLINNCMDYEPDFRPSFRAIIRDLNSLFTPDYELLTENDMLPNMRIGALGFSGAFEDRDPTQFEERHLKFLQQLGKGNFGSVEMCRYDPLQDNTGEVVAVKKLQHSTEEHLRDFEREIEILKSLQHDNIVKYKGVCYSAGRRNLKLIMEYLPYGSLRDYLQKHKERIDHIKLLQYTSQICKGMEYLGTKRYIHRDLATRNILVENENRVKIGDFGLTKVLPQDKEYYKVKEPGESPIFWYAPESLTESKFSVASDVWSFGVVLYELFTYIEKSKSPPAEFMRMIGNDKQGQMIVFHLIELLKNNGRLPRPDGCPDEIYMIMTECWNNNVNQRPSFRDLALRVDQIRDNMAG

Row | SMILES | IC50 [1] [nM] | IC50 [2] [nM] | IC50 [3] [nM] | IC50 [4] [nM] | IC50 [5] [nM] | IC50 [6] [µM] | logD (physchem [7]) | solubility (physchem [8]) [µM] | CLint scaled (in vitro) [mL/min/kg]
1 | Cc1[nH]nc2[nH]c(=O)cc([C@@H]3C[C@H]4CC[C@@H]3C4)c12 (racemic) | 44 | 180 | 380 | 150 | 1000 | > 40 | 2.7 | 33 (≈ 8.03 µg/mL) | –
2 | Cc1cc(=O)[nH]c2nn(C)c(C)c12 | > 500000 | – | – | – | – | – | – | – | –
3 | Cc1[nH]nc2[nH]c(=O)cc(CC3CCC3)c12 | 120 | 480 | 570 | 1100 | 3400 | > 40 | 2.2 | 16 (≈ 3.48 µg/mL) | –
4 | O=c1cc(C2CCCCC2)c2c(C3CC3)[nH]nc2[nH]1 | 500 | 980 | 1300 | 1600 | 1800 | > 40 | 3.1 | – | –
5 | Cc1[nH]nc2[nH]c(=O)c(CCO)c(C3CCCCC3)c12 | 490 | 990 | 3900 | 3400 | 8500 | > 40 | 2.6 | 11 (≈ 3.03 µg/mL) | –
6 | Cc1[nH]nc2[nH]c(=O)cc([C@H]3CC[C@H](C#N)CC3)c12 | 730 | 11000 | – | – | – | – | – | – | –
7 | Cc1[nH]nc2[nH]c(=O)cc(C3CC4CCC3CC4)c12 (racemic) | 54 | 65 | 330 | 220 | 890 | 9.1 | 3.3 | 8 (≈ 2.06 µg/mL) | –
8 | Cc1[nH]nc2[nH]c(=O)cc([C@H]3CCCC[C@H]3C)c12 (racemic) | 40 | 110 | 340 | 700 | 1300 | 8.9 | 3 | 8 (≈ 1.96 µg/mL) | –
9 | O=c1cc(C2CCCCC2)c2c[nH]nc2[nH]1 | 15000 | 12000 | 35000 | 24000 | > 50000 | – | – | – | –
10 | Cc1[nH]nc2[nH]c(=O)cc([C@H]3CC[C@H](CC(=O)N4CCC(c5ccccc5)C4)CC3)c12 (mixture of isomers) | 2.1 | 63 | 19 | – | 110 | 2.4 | 3 | – | 75
11 | Cc1[nH]nc2[nH]c(=O)cc([C@H]3CC[C@H](C(=O)NC4CC4)CC3)c12 | 2000 | 1100 | 9400 | 14000 | > 40000 | > 40 | – | – | –
12 | Cc1[nH]nc2[nH]c(=O)cc([C@H]3CC[C@H](NC(=O)[C@H]4CC4(F)F)CC3)c12 | 78 | 2700 | 1700 | 2700 | > 40000 | > 40 | 1.3 | 29 (≈ 10.2 µg/mL) | –
13 | Cc1[nH]nc2[nH]c(=O)cc([C@H]3CC[C@H](N)CC3)c12 | 820 | 11000 | 18000 | 16000 | > 40000 | > 40 | – | – | –
14 | Cc1[nH]nc2[nH]c(=O)cc([C@H]3CC[C@H](OC(=O)[C@@H]4CC4(F)F)CC3)c12 | 14 | 91 | 120 | – | 420 | > 25 | – | 3 (≈ 1.05 µg/mL) | –
15 | Cc1[nH]nc2[nH]c(=O)cc([C@H]3CC[C@H](CC(=O)N4CCC(C)(C)CC4)CC3)c12 | 3.4 | 57 | 32 | – | 110 | 3.4 | 2.9 | – | 70
16 | Cc1[nH]nc2[nH]c(=O)cc([C@H]3CC[C@H](CC#N)CC3)c12 | 40 | 270 | 360 | 130 | 1200 | > 40 | 1.5 | 59 (≈ 15.9 µg/mL) | –
17 | Cc1[nH]nc2[nH]c(=O)cc([C@H]3CC[C@H](NC(=O)C4CCCC4)CC3)c12 | 110 | 4800 | 1600 | 6800 | 9100 | > 30 | – | – | –
18 | Cc1[nH]nc2[nH]c(=O)c(CO)c(C3CCCCC3)c12 | 140 | 1400 | 2800 | 650 | 4800 | > 40 | 2.1 | 100 (≈ 26.1 µg/mL) | –

Row | SMILES | IC50 [1] [nM] | IC50 [2] [nM] | IC50 [3] [nM] | IC50 [4] [nM] | IC50 [5] [nM] | IC50 [6] [µM] | logD (physchem [7]) | solubility (physchem [8]) [µM] | CLint scaled (in vitro) [mL/min/kg]
19 | Cc1[nH]nc2[nH]c(=O)cc([C@H]3CC[C@H](CCC#N)CC3)c12 | 32 | 280 | 160 | – | 1200 | 13 | 1.8 | 18 (≈ 5.12 µg/mL) | –
20 | Cc1[nH]nc2[nH]c(=O)cc(C3CCCCC3)c12 | 130 | 550 | 1300 | 670 | 3700 | > 40 | 2.8 | 4 (≈ 0.925 µg/mL) | –
21 | CCc1[nH]nc2[nH]c(=O)cc(C3CCCCC3)c12 | 460 | 1600 | 2700 | – | 2500 | > 40 | 3 | – | –
22 | Cc1[nH]nc2[nH]c(=O)cc([C@@H]3C[C@@H]4C[C@H]3C[C@H]4CC#N)c12 | – | 420 | 93 | 180 | – | 15 | – | – | –
23 | O=c1cc(C(F)F)c2c[nH]nc2[nH]1 | > 100000 | – | – | – | – | – | – | – | –
24 | Cc1[nH]nc2[nH]c(=O)cc([C@H]3CC[C@H](CC(=O)N4CC(Cc5ccccc5)C4)CC3)c12 | 3 | 88 | – | – | 250 | – | 3 | 2.4 (≈ 1 µg/mL) | 87
25 | Cc1[nH]nc2[nH]c(=O)cc(C3CCCC3)c12 | 72 | 670 | 13000 | 830 | 4300 | > 40 | 2.2 | 39 (≈ 8.47 µg/mL) | –
26 | Cc1[nH]nc2[nH]c(=O)cc([C@H]3CC[C@H](O)CC3)c12 | 490 | 1700 | – | 4200 | 20000 | – | 0.8 | > 85 | –
27 | Cc1cc(=O)[nH]c2n[nH]c(C)c12 | 30000 | – | – | – | – | – | – | – | –
28 | CCCS(=O)(=O)N[C@H]1C[C@@H](N(C)c2ncnc3[nH]ccc23)C1 [ABROCITINIB] | – | – | – | – | – | – | 2 | – | –
29 | Cc1[nH]nc2[nH]c(=O)cc([C@H]3CC[C@H](NS(=O)(=O)CC4CCC4)CC3)c12 | 40 | 1700 | 570 | – | 3200 | > 10 | – | – | –
30 | Cc1[nH]nc2[nH]c(=O)cc([C@H]3CC[C@H](NC(=O)[C@@H]4CC4(F)F)CC3)c12 | 6.4 | 480 | 120 | 220 | 1700 | > 7 | 1.3 | 43 (≈ 15.1 µg/mL) | –
31 | Cc1[nH]nc2[nH]c(=O)cc([C@H]3CC[C@H](NC(=O)C4CC4)CC3)c12 | 220 | 7000 | 2100 | 2800 | > 14000 | > 14 | 1.2 | 22 (≈ 6.92 µg/mL) | –
32 | Cc1[nH]nc2[nH]c(=O)cc(-c3ccccc3)c12 | 2200 | 2600 | 4200 | 3900 | > 50000 | – | 2.2 | > 90 | –
33 | Cc1[nH]nc2[nH]c(=O)c(C#N)c(C3CCCCC3)c12 | 2100 | 5400 | 17000 | 11000 | 20000 | > 40 | – | – | –
34 | Cc1cc(O)nc2c1c(C)nn2C | > 900000 | – | – | – | – | – | – | – | –
35 | Cc1[nH]nc2[nH]c(=O)cc([C@H]3C[C@H]4CC[C@@H]3C4)c12 (racemic) | 46 | 240 | 430 | 430 | 850 | 22 | 2.8 | 64 (≈ 15.6 µg/mL) | –
36 | Cc1[nH]nc2[nH]c(=O)cc([C@H]3CC[C@H](NS(=O)(=O)C4CC4)CC3)c12 | 400 | 6600 | 2500 | – | – | – | – | – | –
